ChEMBL document CHEMBL1201861, “Genomics of Drug Sensitity in Cancer screening data, Wellcome Trust Sanger Institute”

Legend:
Test in all cases: cells
Conditions in all cases: Homo sapiens
LS-513 = format: functional, cell-based
Description: SANGER: Inhibition of human LS-513 cell growth in a cell viability assay.

TE-6 = format: functional, cell-based;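 also: growth inhibition of TE-6 cells, read out with a cell viability assay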
Description: SANGER: Inhibition of human TE-6 cell growth in a cell viability assay.

NOMO-1 = format: functional, cell-based;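 also: growth inhibition of human NOMO-1 cells measured by a cell viability assay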
Description: SANGER: Inhibition of human NOMO-1 cell growth in a cell viability assay.

NCI-H1304 = format: functional, cell-based;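 also: growth inhibition of the cancer cell line, measured in a cell viability assay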
Description: SANGER: Inhibition of human NCI-H1304 cell growth in a cell viability assay.

EW-16 = format: functional, cell-based;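 also: growth inhibition of human EW-16 cells, read out as cell viability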
Description: SANGER: Inhibition of human EW-16 cell growth in a cell viability assay.

ML-2 = format: functional, cell-based;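 also: growth inhibition of ML-2 cells, measured with a cell viability readout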
Description: SANGER: Inhibition of human ML-2 cell growth in a cell viability assay.

HT1197 = format: functional, cell-based, HT-1197
Description: SANGER: Inhibition of human HT-1197 cell growth in a cell viability assay.

COLO-824 = format: functional, cell-based
Description: SANGER: Inhibition of human COLO-824 cell growth in a cell viability assay.

SW 954 = format: functional, cell-based;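 also: growth inhibition of SW954 human cancer cells, read out as cell viability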
Description: SANGER: Inhibition of human SW954 cell growth in a cell viability assay.

C2BBe1 = format: functional, cell-based;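 also: growth inhibition of C2BBe1 cells, read out through a viability assay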
Description: SANGER: Inhibition of human C2BBe1 cell growth in a cell viability assay.

MIA PaCa-2 = format: functional, cell-based;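 also: growth inhibition of MIA PaCa-2 cells, read out with a cell viability assay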
Description: SANGER: Inhibition of human MIA-PaCa-2 cell growth in a cell viability assay.

ES6 = format: functional, cell-based;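 also: growth inhibition of human ES6 cells, read out with a cell viability assay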
Description: SANGER: Inhibition of human ES6 cell growth in a cell viability assay.

A498 = format: functional, cell-based;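 also: growth inhibition of human A498 cells, read out with a cell viability assay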
Description: SANGER: Inhibition of human A498 cell growth in a cell viability assay.

MZ1-PC = format: functional, cell-based;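 also: cell viability assay measuring growth inhibition of human MZ1-PC cells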
Description: SANGER: Inhibition of human MZ1-PC cell growth in a cell viability assay.

no-10 = format: functional, cell-based;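 also: growth inhibition of no-10 cells, read out with a cell viability assay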
Description: SANGER: Inhibition of human no-10 cell growth in a cell viability assay.

RS4-11 = format: functional, cell-based;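 also: growth inhibition of RS4-11 cells, read out by a cell viability assay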
Description: SANGER: Inhibition of human RS4-11 cell growth in a cell viability assay.

SF-268 = format: functional, cell-based;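 also: growth inhibition of SF-268 cells determined with a cell viability assay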
Description: SANGER: Inhibition of human SF268 cell growth in a cell viability assay.

EW-24 = format: functional, cell-based;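 also: human EW-24 cancer cell line, growth inhibition read out via a cell viability assay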
Description: SANGER: Inhibition of human EW-24 cell growth in a cell viability assay.

BB49-HNC = format: functional, cell-based;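 also: cell viability assay read-out, reported as inhibition of BB49-HNC cell growth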
Description: SANGER: Inhibition of human BB49-HNC cell growth in a cell viability assay.

MPP-89 = format: functional, cell-based;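 also: growth inhibition of human MPP-89 cells, read out with a cell viability assay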
Description: SANGER: Inhibition of human MPP-89 cell growth in a cell viability assay.

LB373-MEL-D = format: functional, cell-based;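 also: growth inhibition of the cell line, read out in a cell viability assay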
Description: SANGER: Inhibition of human LB373-MEL-D cell growth in a cell viability assay.

MKN-1 = format: functional, cell-based;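 also: growth inhibition of human MKN1 cells, read out by a cell viability measurement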
Description: SANGER: Inhibition of human MKN1 cell growth in a cell viability assay.

MeWo = format: functional, cell-based;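 also: growth inhibition of MeWo cells, determined by a cell viability readout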
Description: SANGER: Inhibition of human Mewo cell growth in a cell viability assay.

NB5 = format: functional, cell-based;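 also: growth inhibition of NB5 cells, read out as cell viability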
Description: SANGER: Inhibition of human NB5 cell growth in a cell viability assay.

GI-1 = format: functional, cell-based
Description: SANGER: Inhibition of human GI-1 cell growth in a cell viability assay.

EW-13 = format: functional, cell-based;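 also: growth inhibition of EW-13 cells, read out with a cell viability assay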
Description: SANGER: Inhibition of human EW-13 cell growth in a cell viability assay.

HEL = format: functional, cell-based;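 also: growth inhibition of HEL cells, read out with a cell viability assay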
Description: SANGER: Inhibition of human HEL cell growth in a cell viability assay.

SK-OV-3 = format: functional, cell-based;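 also: growth inhibition of SK-OV-3 human cells, read out with a cell viability assay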
Description: SANGER: Inhibition of human SK-OV-3 cell growth in a cell viability assay.

NCI-H446 = format: functional, cell-based;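 also: growth inhibition of NCI-H446 cells determined by a cell viability assay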
Description: SANGER: Inhibition of human NCI-H446 cell growth in a cell viability assay.

CCRF-CEM = format: functional, cell-based;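 also: inhibition of CCRF-CEM cell growth, measured by a cell viability assay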
Description: SANGER: Inhibition of human CCRF-CEM cell growth in a cell viability assay.

EW-3 = format: functional, cell-based;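 also: cell viability assay read-out, IC50 reflects inhibition of growth of the EW-3 cells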
Description: SANGER: Inhibition of human EW-3 cell growth in a cell viability assay.

OS-RC-2 = format: functional, cell-based;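 also: growth inhibition of human OS-RC-2 cells, measured by a cell viability assay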
Description: SANGER: Inhibition of human OS-RC-2 cell growth in a cell viability assay.

OCI-AML2 = format: functional, cell-based;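 also: growth inhibition of OCI-AML2 cells, read out with a cell viability assay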
Description: SANGER: Inhibition of human OCI-AML2 cell growth in a cell viability assay.

HCE-T = format: functional, cell-based;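 also: cell viability assay read-out, reporting inhibition of HCE-T cell growth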
Description: SANGER: Inhibition of human HCE-T cell growth in a cell viability assay.

C8166 = format: functional, cell-based;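 also: growth inhibition of human C8166 cells measured by a cell viability assay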
Description: SANGER: Inhibition of human C8166 cell growth in a cell viability assay.

BT-474 = format: functional, cell-based
Description: SANGER: Inhibition of human BT-474 cell growth in a cell viability assay.

KYSE-150 cell line = format: functional, cell-based;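 also: growth inhibition of human KYSE-150 cells, read out with a cell viability assay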
Description: SANGER: Inhibition of human KYSE-150 cell growth in a cell viability assay.

ATN-1 = format: functional, cell-based;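 also: growth inhibition of human ATN-1 cells, read out with a cell viability assay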
Description: SANGER: Inhibition of human ATN-1 cell growth in a cell viability assay.

LNCaP-Clone-FGC = format: functional, cell-based
Description: SANGER: Inhibition of human LNCaP-Clone-FGC cell growth in a cell viability assay.

MN-60 = format: functional, cell-based;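 also: growth inhibition of the MN-60 cell line, determined with a cell viability assay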
Description: SANGER: Inhibition of human MN-60 cell growth in a cell viability assay.

ETK-1 = format: functional, cell-based;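 also: growth inhibition of human ETK-1 cells, read out with a cell viability assay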
Description: SANGER: Inhibition of human ETK-1 cell growth in a cell viability assay.

EC-GI-10 = format: functional, cell-based
Description: SANGER: Inhibition of human EC-GI-10 cell growth in a cell viability assay.

no-11 = format: functional, cell-based;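 also: growth inhibition of human NO-11 cells, read out with a cell viability assay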
Description: SANGER: Inhibition of human no-11 cell growth in a cell viability assay.

MFH-ino = format: functional, cell-based;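 also: growth inhibition of human MFH-ino cells, read out by a cell viability assay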
Description: SANGER: Inhibition of human MFH-ino cell growth in a cell viability assay.

VA-ES-BJ = format: functional, cell-based;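 also: growth inhibition of the VA-ES-BJ cell line, read out by a cell viability assay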
Description: SANGER: Inhibition of human VA-ES-BJ cell growth in a cell viability assay.

ES4 = format: functional, cell-based;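 also: growth inhibition of human ES4 cells, read out by a cell viability assay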
Description: SANGER: Inhibition of human ES4 cell growth in a cell viability assay.

EW-11 = format: functional, cell-based;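 also: growth inhibition of human EW-11 cells, measured with a cell viability assay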
Description: SANGER: Inhibition of human EW-11 cell growth in a cell viability assay.

SK-UT-1 = format: functional, cell-based;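 also: growth inhibition of SK-UT-1 cells, measured by a cell viability assay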
Description: SANGER: Inhibition of human SK-UT-1 cell growth in a cell viability assay.

NCI-H1648 = format: functional, cell-based;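 also: cell viability assay measuring inhibition of NCI-H1648 cell growth, from the Sanger screening data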
Description: SANGER: Inhibition of human NCI-H1648 cell growth in a cell viability assay.

FTC-133 = format: functional, cell-based
KE-37 = format: functional, cell-based;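 also: growth inhibition of KE-37 cells, read out with a cell viability assay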
Description: SANGER: Inhibition of human KE-37 cell growth in a cell viability assay.

OMC-1 = format: functional, cell-based;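 also: growth inhibition of the OMC-1 cell line, measured by a cell viability assay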
Description: SANGER: Inhibition of human OMC-1 cell growth in a cell viability assay.

AGS = format: functional, cell-based;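 also: growth inhibition of AGS cells, determined with a cell viability assay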
Description: SANGER: Inhibition of human AGS cell growth in a cell viability assay.

SK-MEL-1 = format: functional, cell-based;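 also: growth inhibition of human SK-MEL-1 cells, read out by a cell viability assay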
Description: SANGER: Inhibition of human SK-MEL-1 cell growth in a cell viability assay.

KURAMOCHI = format: functional, cell-based;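 also: growth inhibition of KURAMOCHI cells, read out with a cell viability assay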
Description: SANGER: Inhibition of human KURAMOCHI cell growth in a cell viability assay.

COLO-741 = format: functional, cell-based
Description: SANGER: Inhibition of human COLO-741 cell growth in a cell viability assay.

BFTC-909 = format: functional, cell-based
Description: SANGER: Inhibition of human BFTC-909 cell growth in a cell viability assay.

OVCAR-5 = format: functional, cell-based;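 also: growth inhibition of human OVCAR-5 cells, read out with a cell viability assay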
Description: SANGER: Inhibition of human OVCAR-5 cell growth in a cell viability assay.

DU-4475 = format: functional, cell-based
Description: SANGER: Inhibition of human DU-4475 cell growth in a cell viability assay.

NCI-H1299 = format: functional, cell-based;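 also: growth inhibition of human NCI-H1299 cells, read out by a cell viability assay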
Description: SANGER: Inhibition of human NCI-H1299 cell growth in a cell viability assay.

LU-139 = format: functional, cell-based
Description: SANGER: Inhibition of human LU-139 cell growth in a cell viability assay.

TK-10 = format: functional, cell-based
Description: SANGER: Inhibition of human TK10 cell growth in a cell viability assay.

SNU-5 = format: functional, cell-based
Description: SANGER: Inhibition of human NCI-SNU-5 cell growth in a cell viability assay.

LS-123 = format: functional, cell-based
Description: SANGER: Inhibition of human LS-123 cell growth in a cell viability assay.

DMS-79 = format: functional, cell-based
Description: SANGER: Inhibition of human DMS-79 cell growth in a cell viability assay.

`C[C@]1(c2nc3c(C(N)=O)cccc3[nH]2)CCCN1` [VELIPARIB] was tested, and the IC50 (LS-513) was > 5000 nM, the IC50 (TE-6) was > 5000 nM and the IC50 (NOMO-1) was > 5000 nM. The IC50 (NCI-H1304) was > 5000 nM, the IC50 (EW-16) was > 5000 nM and the IC50 (ML-2) was > 5000 nM. The IC50 (HT1197) was > 5000 nM, the IC50 (COLO-824) was > 5000 nM and the IC50 (SW 954) was > 5000 nM. For the same compound, the IC50 (C2BBe1) was > 5000 nM, the IC50 (MIA PaCa-2) was > 5000 nM and the IC50 (ES6) was > 5000 nM. The IC50 (A498) was > 5000 nM, the IC50 (MZ1-PC) was > 5000 nM and the IC50 (no-10) was > 5000 nM. For the same compound, the IC50 (RS4-11) was > 5000 nM, the IC50 (SF-268) was > 5000 nM and the IC50 (EW-24) was > 5000 nM. For the same compound, the IC50 (BB49-HNC) was > 5000 nM, the IC50 (MPP-89) was > 5000 nM and the IC50 (LB373-MEL-D) was > 5000 nM. The IC50 (MKN-1) was > 5000 nM, the IC50 (MeWo) was > 5000 nM and the IC50 (NB5) was > 5000 nM. For the same compound, the IC50 (GI-1) was > 5000 nM, the IC50 (EW-13) was > 5000 nM and the IC50 (HEL) was > 5000 nM. For the same compound, the IC50 (SK-OV-3) was > 5000 nM, the IC50 (NCI-H446) was > 5000 nM and the IC50 (CCRF-CEM) was > 5000 nM. The IC50 (EW-3) was > 5000 nM, the IC50 (OS-RC-2) was > 5000 nM and the IC50 (OCI-AML2) was > 5000 nM. The IC50 (HCE-T) was > 5000 nM, the IC50 (C8166) was > 5000 nM and the IC50 (BT-474) was > 5000 nM. For the same compound, the IC50 (KYSE-150 cell line) was > 5000 nM, the IC50 (ATN-1) was > 5000 nM and the IC50 (LNCaP-Clone-FGC) was > 5000 nM. The IC50 (MN-60) was > 5000 nM, the IC50 (ETK-1) was > 5000 nM and the IC50 (EC-GI-10) was > 5000 nM. The IC50 (no-11) was > 5000 nM, the IC50 (MFH-ino) was > 5000 nM and the IC50 (VA-ES-BJ) was > 5000 nM. The IC50 (ES4) was > 5000 nM, the IC50 (EW-11) was > 5000 nM and the IC50 (SK-UT-1) was > 5000 nM. For the same compound, the IC50 (NCI-H1648) was > 5000 nM, the IC50 (FTC-133) was > 5000 nM and the IC50 (KE-37) was > 5000 nM. For the same compound, the IC50 (OMC-1) was > 5000 nM, the IC50 (AGS) was > 5000 nM and the IC50 (SK-MEL-1) was > 5000 nM. For the same compound, the IC50 (KURAMOCHI) was > 5000 nM, the IC50 (COLO-741) was > 5000 nM and the IC50 (BFTC-909) was > 5000 nM. For the same compound, the IC50 (OVCAR-5) was > 5000 nM, the IC50 (DU-4475) was > 5000 nM and the IC50 (NCI-H1299) was > 5000 nM. For the same compound, the IC50 (LU-139) was > 5000 nM, the IC50 (TK-10) was > 5000 nM and the IC50 (SNU-5) was 3.13 µM. The IC50 (LS-123) was > 5000 nM and the IC50 (DMS-79) was > 5000 nM.

Work on `CC[C@]1(O)C[C@@H]2CN(CCc3c([nH]c4ccccc34)[C@@](C(=O)OC)(c3cc4c(cc3OC)N(C)[C@H]3[C@@](O)(C(=O)OC)[C@H](OC(C)=O)[C@]5(CC)C=CCN6CC[C@]43[C@@H]65)C2)C1` [VINBLASTINE] yielded an IC50 (LS-513) of 56.3 nM, an IC50 (TE-6) of 56.5 nM and an IC50 (NOMO-1) of 7.86 nM. The IC50 (NCI-H1304) was > 100 nM, the IC50 (EW-16) was 7.83 nM and the IC50 (ML-2) was 8.65 nM. For the same compound, the IC50 (HT1197) was 99.8 nM, the IC50 (COLO-824) was > 100 nM and the IC50 (SW 954) was 9.66 nM. For the same compound, the IC50 (C2BBe1) was 16.9 nM, the IC50 (MIA PaCa-2) was 3.39 nM and the IC50 (ES6) was > 100 nM. For the same compound, the IC50 (A498) was 5.94 nM, the IC50 (MZ1-PC) was 24.2 nM and the IC50 (no-10) was > 100 nM. It also gave an IC50 (RS4-11) of 4.51 nM, an IC50 (SF-268) of 16.2 nM and an IC50 (EW-24) of 18 nM. For the same compound, the IC50 (BB49-HNC) was 12.6 nM, the IC50 (MPP-89) was 30.3 nM and the IC50 (LB373-MEL-D) was 64.1 nM. For the same compound, the IC50 (MKN-1) was 10.1 nM, the IC50 (MeWo) was 9.13 nM and the IC50 (NB5) was 15.7 nM. For the same compound, the IC50 (GI-1) was 4.36 nM, the IC50 (EW-13) was 36.5 nM and the IC50 (HEL) was 32.8 nM. The IC50 (SK-OV-3) was > 100 nM, the IC50 (NCI-H446) was 2.12 nM and the IC50 (CCRF-CEM) was 10.1 nM. The IC50 (EW-3) was 37.2 nM, the IC50 (OS-RC-2) was 69.8 nM and the IC50 (OCI-AML2) was > 100 nM. The IC50 (HCE-T) was 20 nM, the IC50 (C8166) was 27 nM and the IC50 (BT-474) was 94.2 nM. It also gave an IC50 (KYSE-150 cell line) of 46.5 nM, an IC50 (ATN-1) of 1.03 nM and an IC50 (LNCaP-Clone-FGC) of 8.28 nM. The IC50 (MN-60) was 29.4 nM, the IC50 (ETK-1) was 5.79 nM and the IC50 (EC-GI-10) was 3.53 nM. For the same compound, the IC50 (no-11) was 38.8 nM, the IC50 (MFH-ino) was > 100 nM and the IC50 (VA-ES-BJ) was 3.27 nM. The IC50 (ES4) was 13.8 nM, the IC50 (EW-11) was 7.15 nM and the IC50 (SK-UT-1) was 11.7 nM. For the same compound, the IC50 (NCI-H1648) was 5.52 nM, the IC50 (FTC-133) was 8.44 nM and the IC50 (KE-37) was 3.99 nM. For the same compound, the IC50 (OMC-1) was > 100 nM, the IC50 (AGS) was 12.3 nM and the IC50 (SK-MEL-1) was 67.3 nM. The IC50 (KURAMOCHI) was > 100 nM, the IC50 (COLO-741) was 2.14 nM and the IC50 (BFTC-909) was 7.53 nM. The IC50 (OVCAR-5) was 13.6 nM, the IC50 (DU-4475) was > 100 nM and the IC50 (NCI-H1299) was 16.4 nM. For the same compound, the IC50 (LU-139) was 14.1 nM, the IC50 (TK-10) was 42.4 nM and the IC50 (SNU-5) was > 0.1 µM. For the same compound, the IC50 (LS-123) was 53.3 nM and the IC50 (DMS-79) was > 100 nM.
